Our source for the melting point and activity values is patent US9018229B2, “Quinolone compound and pharmaceutical composition” (Otsuka Pharmaceutical Co., Ltd., priority 2008, dated 2015).

Structures can show the parent of a compound that is named as a salt.

The subject of series [1] is human neuroblastoma cell lines SH-SY5Y treated with 1-methyl-4-phenylpyridinium (MPP+). Briefly: Improvement of mitochondrial dysfunction in MPP+-treated SH-SY5Y cells (mitochondrial oxidation reduction activity, Alamar Blue). In kind it is cell-based. As to conditions: 1.5 mM MPP+, relative to cells in DMSO alone = 100%, read-out: Fluorescence Intensity (%); for activity at 0.01 µg/mL: test compound 0.01 μg/ml; for activity at 0.03 µg/mL: test compound 0.03 μg/ml; for activity at 0.1 µg/mL: test compound 0.1 μg/ml; for activity at 0.3 µg/mL: test compound 0.3 μg/ml; for activity at 1 µg/mL: test compound 1 μg/ml. How it is done: Evaluation of the Improvement of Mitochondrial Dysfunction Using Human Neuroblastoma Cell Lines SH-SY5Y Treated with 1-methyl-4-phenylpyridinium (MPP^+)
In human neuroblastoma cell lines SH-SY5Y in which mitochondrial activity was injured by MPP^+ treatment (Bollimuntha S. et al., J Biol Chem, 280, 2132-2140 (2005) and Shang T. et al., J Biol Chem, 280, 34644-34653 (2005)), the improvement of mitochondrial dysfunction was evaluated on the basis of measurement values for mitochondrial oxidation reduction activity using Alamar Blue fluorescent dye after the compound addition (Nakai M. et al, Exp Neurol, 179, 103-110 (2003)).
The human neuroblastoma cell lines SH-SY5Y were cultured in Dulbecco's Modified Eagle's Medium containing 10% fetal bovine serum (DMEM containing 50 units/ml penicillin and 50 μg/ml streptomycin as antibiotics) at 37° C. in the presence of 5% carbon dioxide. Cells were scattered on a poly-D-lysine-coated 96-well black plate at a concentration of 3−6×10^4 cells/cm^2 (medium amount: 100 μl/well), and cultured in the above medium for two days. Further, the medium was changed to DMEM containing a 1% N2 supplement (N2-DMEM) or to a medium (100 μl/well) in which 1.5 mM MPP^+ was dissolved. The cells were cultured therein for 39 to 48 hours, and then subjected to a mitochondrial oxidation reduction activity measurement system. A sample compound that had been previously dissolved in dimethyl sulfoxide (DMSO) was diluted with N2-DMEM, and added in a volume of 10 μl/well 24 hours before the activity measurement (final compound concentration: 0.01 to 1 μg/ml).
After removal of the medium by suction, a balanced salt solution containing 10% Alamar Blue (154 mM sodium chloride, 5.6 mM potassium chloride, 2.3 mM calcium chloride, 1.0 mM magnesium chloride, 3.6 mM sodium bicarbonate, 5 mM glucose, 5 mM HEPES, pH 7.2) was added in a volume of 100 μl/well, and reacted in an incubator at 37° C. for 1 hour. The fluorescent intensity was detected using a fluorescence detector (a product of Hamamatsu Photonics K.K., excitation wavelength 530 nm, measurement wavelength 580 nm) to thereby measure the mitochondrial oxidation reduction activity.
The fluorescent intensity of the well of the cells cultured in a medium containing MPP^+ and in each of the sample compounds was relatively evaluated based on the 100% fluorescent intensity of the well of the cells cultured in a medium containing DMSO alone (final concentration: 0.1%).
For orientation: The colour change of resazurin is a common sign of viable cells or microbes.

Turning to `CCCOc1ccc(F)c2c(=O)c(-c3ccc(OC)cc3)cn(CCN3CCOCC3)c12`, the melting point (in general, the temperature, or range, at which the solid turns liquid) was 206 to 208 °C.

In turn, `CCCOc1cc2ccccc2c2c(=O)c(-c3ccc(OC)cc3)c[nH]c12` gave a melting point of 172 to 174 °C.

In the case of `CCCOc1ccc(F)c2c(=O)c(-c3ccc(OC)cc3)cn(COC(=O)c3ccc(OP(=O)([O-])[O-])cc3)c12.[Na+].[Na+]`, the melting point fell in the range of 205 to 207 °C.

For `CCCOc1cc2ccccc2c2c(=O)c(-c3ccsc3)cn(C)c12` [Example 7, 4-methyl-5-propoxy-2-thiophen-3-yl-4H-benzo[f]quinolin-1-one], in series [1], the activity at 0.01 µg/mL was determined as 66%, the activity at 0.03 µg/mL was determined as 71%, the activity at 0.1 µg/mL was 78% and the activity at 0.3 µg/mL was determined as 80%. Also, in series [1], the activity at 1 µg/mL came to 75%.

In turn, `CCCOc1ccc(F)c2c(=O)c(-c3ccc(OC)cc3)cn(CC(=O)NCCN3CCOCC3)c12` returned a melting point of 139 to 141 °C.

`CCCOc1cc2ccccc2c2c(=O)c(-c3ccc(OC)cc3)c(C)[nH]c12` gave a melting point of 204 to 206 °C.

In the case of `CCCOc1ccc(F)c2c(=O)c(-c3ccc(OC)cc3)c(CN3CCN(c4ccccn4)CC3)[nH]c12`, the melting point was 211 to 212 °C.

Turning to `CCCOc1cc2c(c3c(=O)c(-c4ccc(OC)cc4)cn(CC(=O)NCCN4CCOCC4)c13)OCCC2`, the melting point was 201 to 203 °C.

With `CCCOc1cc2ccccc2c2c(=O)c(-c3ccoc3)cn(C)c12`, the melting point lay within 165 to 167 °C.

Turning to `COc1ccc(-c2c[nH]c3c(OCC(=O)NCCN4CCOCC4)ccc(F)c3c2=O)cc1` [Example 139, 2-[5-fluoro-3-(4-methoxyphenyl)-4-oxo-1,4-dihydro-quinolin-8-yloxy]-N-(2-morpholin-4-ylethyl)acetamide], in series [1], the activity at 0.01 µg/mL is 53%, the activity at 0.03 µg/mL is 58%, the activity at 0.1 µg/mL was 57% and the activity at 0.3 µg/mL came out at 60%. In series [1], the activity at 1 µg/mL was found to be 55%.

In the case of `CCCOc1ccc(F)c2c(=O)c(-c3ccc(OC)cc3)cn(CCC(=O)OCCN3CCN(C)CC3)c12.Cl.Cl`, the melting point lay in the range of 150 to 152 °C.

As for `CCCOc1cc2cnccc2c2c(=O)c(-c3ccc(OC)cc3)cn(CC(=O)NCCN3CCOCC3)c12` [Example 69, 2-[9-(4-methoxyphenyl)-10-oxo-6-propoxy-10H-[3,7]phenanthrolin-7-yl]-N-(2-morpholin-4-ylethyl)acetamide], in series [1], the activity at 0.01 µg/mL worked out at 78%, the activity at 0.03 µg/mL amounted to 64%, the activity at 0.1 µg/mL stood at 68% and the activity at 0.3 µg/mL is 67%. The activity at 1 µg/mL in series [1] is 65%.

`CCCOc1ccc(F)c2c(=O)c(-c3ccc(OC)cc3)cn(CCS(=O)(=O)CCCN3CCN(C)CC3)c12.Cl.Cl` yielded a melting point of 72 to 74 °C.

Consider `CCCOc1ccc(F)c2c(=O)c(-c3ccc(OC)cc3)c(C(=O)NCCN3CCOCC3)[nH]c12` [Example 171, 5-fluoro-3-(4-methoxyphenyl)-4-oxo-8-propoxy-1,4-dihydroquinoline-2-carboxy-[2-(morpholin-4-yl)ethyl]amide], for which, in series [1], the activity at 0.01 µg/mL is 61%, the activity at 0.03 µg/mL was determined as 61%, the activity at 0.1 µg/mL is 65% and the activity at 0.3 µg/mL was 67%. In series [1], the activity at 1 µg/mL turned out to be 68%.

`COc1ccc(-c2c[nH]c3c4c(cc(C)c3c2=O)CCO4)cc1` [Example 57, 7-(4-methoxyphenyl)-5-methyl-2,3-dihydro-9H-flo[3,2-h]quinolin-6-one]: in series [1], the activity at 0.01 µg/mL was found to be 64%, the activity at 0.03 µg/mL was found to be 65%, the activity at 0.1 µg/mL was 68% and the activity at 0.3 µg/mL was determined as 74%. The activity at 1 µg/mL in series [1] was determined as 65%.

With `CCCOc1ccc(F)c2c(=O)c(-c3cnn(C)c3)cn(COP(=O)(O)O)c12` [Example 222, [5-fluoro-3-(1-methyl-1H-pyrazol-4-yl)-4-oxo-8-propoxy-4H-quinolin-1-ylmethyl]monophosphate disodium salt], in series [1], the activity at 0.01 µg/mL stood at 59%, the activity at 0.03 µg/mL was 64%, the activity at 0.1 µg/mL amounted to 66% and the activity at 0.3 µg/mL came to 62%. In addition, in series [1], the activity at 1 µg/mL amounted to 73%.

`CCCOc1ccc(F)c2c(=O)c(-c3ccc(OC)cc3)cn(CC(=O)N(C)CCN3CCOCC3)c12` showed a melting point of 218 to 220 °C.

`CCCOc1ccc(F)c2c(=O)c(-c3ccc(OC)cc3)cn(COP(=O)(O)O)c12` [Example 212, [5-fluoro-3-(4-methoxyphenyl)-4-oxo-8-propoxy-4H-quinolin-1-ylmethyl]monophosphate disodium salt]: in series [1], the activity at 0.01 µg/mL worked out at 46%, the activity at 0.03 µg/mL came to 62%, the activity at 0.1 µg/mL came to 63% and the activity at 0.3 µg/mL stood at 70%. The activity at 1 µg/mL in series [1] was 72%.

The molecule `CCCOc1ccc(F)c2c(=O)c(-c3ccc(Cl)cc3Cl)cn(COP(=O)([O-])[O-])c12.[Na+].[Na+]` displayed a melting point of 208 to 210 °C.

In the case of `CCCOc1cc2c(c3c(=O)c(-c4ccc(OC)cc4)cn(COP(=O)(O)O)c13)OCCC2` [Example 36, [3-(4-methoxyphenyl)-4-oxo-10-propoxy-7,8-dihydro-4H,6H-5-oxa-1-aza-phenanthren-1-ylmethyl]monophosphate disodium salt], in series [1], the activity at 0.01 µg/mL worked out at 69%, the activity at 0.03 µg/mL was 67%, the activity at 0.1 µg/mL was 86% and the activity at 0.3 µg/mL is 90%. Moreover, the activity at 1 µg/mL in series [1] is 89%.

Regarding `CCCOc1cc2c(c3c(=O)c(-c4ccc(OC)cc4)c(C)[nH]c13)OCC2` [Example 48, 8-(4-methoxyphenyl)-7-methyl-5-propoxy-3,6-dihydro-2H-flo[2,3-f]quinolin-9-one], in series [1], the activity at 0.01 µg/mL is 60%, the activity at 0.03 µg/mL came to 81%, the activity at 0.1 µg/mL is 92% and the activity at 0.3 µg/mL worked out at 93%. The activity at 1 µg/mL in series [1] came out at 80%.

Take `CCCOc1ccc(F)c2c(=O)c(-c3ccc(C(=O)N4CCC(N5CCOCC5)CC4)cc3)c[nH]c12` [Example 163, 5-fluoro-3-[4-(4-morpholin-4-yl-piperidine-1-carbonyl)phenyl]-8-propoxy-1H-quinolin-4-one]: in series [1], the activity at 0.01 µg/mL was 61%, the activity at 0.03 µg/mL was found to be 61%, the activity at 0.1 µg/mL came to 63% and the activity at 0.3 µg/mL came to 60%. For the same molecule, the activity at 1 µg/mL in series [1] was 63%.

In the case of `CCCOc1cc2c(c3c(=O)c(-c4ccsc4)c[nH]c13)CCC2` [Example 12, 5-propoxy-8-thiophen-3-yl-1,2,3,6-tetrahydro-6-aza-cyclopenta[a]naphthalen-9-one], in series [1], the activity at 0.01 µg/mL came to 80%, the activity at 0.03 µg/mL worked out at 74%, the activity at 0.1 µg/mL was 83% and the activity at 0.3 µg/mL is 82%. For the same molecule, the activity at 1 µg/mL in series [1] was 68%.

As to `CCCOc1cc2ccccc2c2c(=O)c(-c3ccoc3)c[nH]c12`, the melting point was in the range of 252 to 254 °C.

Turning to `CCCOc1ccc(F)c2c(=O)c(-c3ccc(OC)cc3)cn(CC(=O)NC3CCNCC3)c12`, the melting point lay within 226 to 228 °C.

Consider `CCCOc1cc2c(c3c(=O)c(-c4ccc(OC)cc4)cn(CCCN4CCOCC4)c13)CCC2`, for which the melting point lay in the range of 135 to 137 °C.
